The target of the experiment is T1, purified human IDO protein (Homo sapiens, UniProt P14902, E119G/P110S).
T1 construct: 6-Histidine tag (C); made in house; host or cells: E. coli M15(pREP4) transformed with pQE70-hIDO
The experiment in a line: Enzymatic IDO assay (kynurenine formation, absorbance at 480 nm). The experiment is classed as biochemical. As to conditions: recombinant human IDO, 200 μM L-tryptophan, pH 6.5; reported in ranges. The procedure:
The inhibitors were initially diluted in DMSO at 100 mM and were diluted in potassium phosphate 50 mM, added to the reaction mixture at final concentrations raging from 1 mM to 5 nM and preincubated with the enzyme for 5 min at 25° C. The reaction was started by addition of L-tryptophan to 200 μM and incubated 15 min at 37° C. The reaction was stopped by addition of 0.5 vol of 30% trichloroacetic acid and incubated 30 min at 60° C. to hydrolyze N-formylkynurenine to kynurenine. The reaction was centrifuged at 3400 g for 5 min to remove precipitated protein and the supernatant was reacted with 2% (w/v) of p-dimethylaminobenzaldehyde in acetic acid. The reaction was incubated 10 min at 25° C. and read at 480 nm in a spectrophotometer. […] Nonlinear regressions and determination of the IC50 values were performed using the GraphPad Prism 4 software.

This is an account of results in US9174942B2, “IDO inhibitors” (NewLink Genetics Corporation, priority 2008, dated 2015).

SMILES strings stand for the structures. Counter-ions that a name gives are not always drawn. Where only a bound is given, the exact number is not on record here.

T1 sequence (P14902 whole entry P110S/E119G): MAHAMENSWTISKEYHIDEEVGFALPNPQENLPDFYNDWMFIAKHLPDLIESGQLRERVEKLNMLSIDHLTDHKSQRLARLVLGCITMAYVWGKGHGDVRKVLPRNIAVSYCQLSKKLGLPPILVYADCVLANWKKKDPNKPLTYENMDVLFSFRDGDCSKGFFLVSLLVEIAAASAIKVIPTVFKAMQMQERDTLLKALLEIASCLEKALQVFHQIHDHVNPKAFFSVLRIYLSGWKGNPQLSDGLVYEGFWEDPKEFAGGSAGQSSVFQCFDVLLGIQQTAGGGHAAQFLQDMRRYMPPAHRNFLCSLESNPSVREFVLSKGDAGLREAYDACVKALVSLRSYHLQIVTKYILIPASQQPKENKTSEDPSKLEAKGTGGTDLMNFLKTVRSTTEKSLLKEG

Broadly, the IC50 is the concentration needed to halve the response being measured. With `NC(=O)COc1ccccc1-c1c[nH]cn1` [Compound 104, 2-(2-(1H-imidazol-4-yl)phenoxy)acetamide], the IC50 is 100 to 500 µM. With `O=C(NCc1ccccc1-c1c[nH]cn1)c1ccccc1Cl` [Compound 30, N-(2-(1H-imidazol-4-yl)benzyl)-2-chlorobenzamide] the figure was under 20 µM; with `c1ccc(CCn2cncc2-c2ccccc2)cc1` [Compound 81, 1-phenethyl-5-phenyl-1H-imidazole], 20 to 100 µM. As for `c1cnc(NCCOc2ccccc2-c2cnc[nH]2)nc1` [Compound 102], the IC50 fell in the range of 100 to 500 µM. Next, `Oc1cccc(Cn2cncc2-c2ccccc2)c1` [Compound 51, 3-((5-phenyl-1H-imidazol-1-yl)methyl)phenol]: under 20 µM; `CC(C)(CCOc1ccccc1-c1c[nH]cn1)CCn1c(=O)c(F)cn([C@@H]2O[C@H](CO)[C@@H](O)[C@H]2O)c1=O` [Compound 162, 3-(5-(2-(1H-imidazol-4-yl)phenoxy)-3,3-dimethylpentyl)-1-((2R,3R,4S,5R)-3,4-dihydroxy-5-(hydroxymethyl)tetrahydrofuran-2-yl)-5-fluoropyrimidine-2,4(1H,3H)-dione]: under 20 µM. With `CC(=O)Nc1cccc(CCOc2ccccc2-c2c[nH]cn2)c1` [Compound 40, N-(3-(2-(2-(1H-imidazol-4-yl)phenoxy)ethyl)phenyl) acetamide] the figure was under 20 µM; with `Oc1ccc(C(F)(F)F)cc1-c1c[nH]cn1` [Compound 156, 2-(1H-imidazol-4-yl)-4-(trifluoromethyl)phenol], under 20 µM. Next, `CC(C)(CCOc1ccccc1-c1c[nH]cn1)CCC(=O)O` [Compound 83, 6-(2-(1H-imidazol-4-yl)phenoxy)-4,4-dimethylhexanoic acid hydrochloride]: 20 to 100 µM; `COc1cccc(Cn2cncc2-c2ccccc2)c1` [Compound 93, 1-(3-methoxybenzyl)-5-phenyl-1H-imidazole]: 20 to 100 µM. Take `CNC(=O)CCCn1cncc1-c1ccccc1` [Compound 128, N-methyl-4-(5-phenyl-1H-imidazol-1-yl)butanamide]: the half-inhibitory concentration (IC50) was 100 to 500 µM. For `CC(=O)N1CCC(COc2ccccc2-c2c[nH]cn2)CC1` [Compound 100, 1-(4-((2-(1H-imidazol-4-yl)phenoxy)methyl)piperidin-1-yl)ethanone], the 50% inhibitory concentration (IC50) fell in the range of 100 to 500 µM. With `Oc1ccc(F)cc1-c1cc[nH]n1` [Compound 36, 4-fluoro-2-(1H-pyrazol-3-yl)phenol] the figure was under 20 µM. With `Sc1ccccc1-c1c[nH]cn1` [Compound 23, 2-(1H-imidazol-5-yl) benzenethiol] the figure was under 20 µM.

As to `Cc1ccccc1COc1ccccc1-c1c[nH]cn1` [Compound 37, 4-(2-(2-methylbenzyloxy)phenyl)-1H-imidazole], the concentration for half-maximal inhibition (IC50) was under 20 µM. Consider `Clc1ccc(CNc2ccccc2-c2c[nH]cn2)cc1` [Compound 62, N-(4-chlorobenzyl)-2-(1H-imidazol-4-yl)aniline], for which the IC50 was in the range of 20 to 100 µM. For `c1ccc(CCCn2cncc2-c2ccccc2)cc1` [Compound 64, 5-phenyl-1-(3-phenylpropyl)-1H-imidazole], the 50% inhibitory concentration (IC50) is 20 to 100 µM. With `Clc1ccccc1OCCc1ccccc1-c1c[nH]cn1` [Compound 149, 4-(2-(2-(2-chlorophenoxy)ethyl)phenyl)-1H-imidazole] the figure was 20 to 100 µM; with `CSc1ccccc1-c1c[nH]cn1` [Compound 1, 5-(2-(methylthio)phenyl)-1H-imidazole], 20 to 100 µM; with `Cc1cccc(COc2ccccc2-c2cnc[nH]2)c1` [Compound 48, 5-(2-(3-methylbenzyloxy)phenyl)-1H-imidazole], under 20 µM. With `Oc1c(Br)cccc1-c1cnc[nH]1` [Compound 35, 2-bromo-6-(1H-imidazol-5-yl)phenol] the figure was under 20 µM; with `Clc1ccc(COc2ccc(OCc3ccc(Cl)cc3)c(-c3c[nH]cn3)c2)cc1` [Compound 91, 4-(2,5-bis(4-chlorobenzyloxy)phenyl)-1H-imidazole], 20 to 100 µM; with `Clc1ccccc1Cn1cncc1-c1ccccc1` [Compound 52, 1-(2-chlorobenzyl)-5-phenyl-1H-imidazole], under 20 µM. As for `Oc1ccccc1Cn1cncc1-c1ccccc1` [Compound 65, 2-((5-phenyl-1H-imidazol-1-yl)methyl)phenol], the IC50 is 20 to 100 µM. Turning to `c1ccc(-c2c[nH]cn2)c(OCC2CCCNC2)c1` (stereo not shown) [Compound 76, 3-((2-(1H-imidazol-4-yl)phenoxy)methyl)piperidine], the concentration for half-maximal inhibition (IC50) is 20 to 100 µM.

Regarding `COc1cccc(O)c1-c1c[nH]cn1` [Compound 41, 2-(1H-imidazol-4-yl)-3-methoxyphenol], the IC50 was under 20 µM.

In the case of `CC(C)(CCNc1ccncc1)CCOc1ccccc1-c1cnc[nH]1` [Compound 164, N-(5-(2-(1H-imidazol-5-yl)phenoxy)-3,3-dimethylpentyl) pyridin-4-amine], the half-inhibitory concentration (IC50) lay in the range of 20 to 100 µM. Next, `NCCCOc1ccccc1-c1cnc[nH]1` [Compound 92, 3-(2-(1H-imidazol-5-yl)phenoxy)propan-1-amine]: 20 to 100 µM; `CC(C)(C)OC(=O)N1CCC(CCOc2ccccc2-c2c[nH]cn2)CC1` [Compound 150, tert-butyl 4-(2-(2-(1H-imidazol-4-yl)phenoxy)ethyl) piperidine-1-carboxylate]: 20 to 100 µM; `NC(=O)c1ccc(COc2ccccc2-c2c[nH]cn2)cc1` [Compound 146, 4-((2-(1H-imidazol-4-yl)phenoxy)methyl)benzamide]: 20 to 100 µM. Next, `COc1ccccc1Cn1cncc1-c1ccccc1` [Compound 110, 1-(2-methoxybenzyl)-5-phenyl-1H-imidazole]: 100 to 500 µM. In the case of `Clc1ccc(COc2ccccc2-c2cnc[nH]2)cc1` [Compound 14, 5-(2-(4-chlorobenzyloxy)phenyl)-1H-imidazole], the IC50 was under 20 µM. For `Cc1ccc(Cn2cncc2-c2ccccc2)cc1` [Compound 72, 1-(4-methylbenzyl)-5-phenyl-1H-imidazole], the IC50 fell in the range of 20 to 100 µM. In the case of `CNC(=O)CCC(C)(C)CCOc1ccccc1-c1c[nH]cn1` [Compound 38, 6-(2-(1H-imidazol-4-yl)phenoxy)-N,4,4-trimethylhexanamide], the IC50 was under 20 µM. Next, `O=C(O)c1cccc(-c2c[nH]cn2)c1` [Compound 113, 3-(1H-imidazol-4-yl)benzoic acid]: 100 to 500 µM; `CNC(=O)Cc1cccc(COc2ccccc2-c2c[nH]cn2)c1` [Compound 57, 2-(3-((2-(1H-imidazol-4-yl)phenoxy)methyl)phenyl)-N-methylacetamide]: 20 to 100 µM. As to `CC(C)(CCOc1ccccc1-c1cnc[nH]1)CCn1ccnc1` [Compound 163, 5-(2-(5-(1H-imidazol-1-yl)-3,3-dimethylpentyloxy)phenyl)-1H-imidazole], the IC50 is 100 to 500 µM.

Regarding `CC(=O)Nc1ccccc1CCOc1ccccc1-c1c[nH]cn1` [Compound 165, N-(2-(2-(2-(1H-imidazol-4-yl)phenoxy)ethyl)phenyl) acetamide], the IC50 was 100 to 500 µM. For `O=C(O)c1ccccc1-c1c[nH]cn1` [Compound 153, 2-(1H-imidazol-4-yl)benzoic acid], the IC50 lay in the range of 100 to 500 µM. Next, `NC(=O)CCCn1cncc1-c1ccccc1` [Compound 129, 4-(5-phenyl-1H-imidazol-1-yl)butanamide]: 100 to 500 µM. With `O=C(O)c1ccc(-c2c[nH]cn2)cc1` [Compound 119, 4-(1H-imidazol-4-yl)benzoic acid] the figure was 100 to 500 µM; with `Oc1ccccc1-c1cc[nH]n1` [Compound 43, 2-(1H-pyrazol-3-yl)phenol], under 20 µM; with `NS(=O)(=O)c1ccc(COc2ccccc2-c2c[nH]cn2)cc1` [Compound 46, 4-((2-(1H-imidazol-4-yl)phenoxy)methyl) benzenesulfonamide], under 20 µM. With `CC(=O)N1CCCC(COc2ccccc2-c2c[nH]cn2)C1` (stereo not shown) [Compound 117, 1-(3-((2-(1H-imidazol-4-yl)phenoxy)methyl)piperidin-1-yl)ethanone] the figure was 100 to 500 µM; with `CC(C)(CCOc1ccccc1-c1c[nH]cn1)CCOc1ccccc1-c1cnc[nH]1` [Compound 18, 5,5′-(2,2′-(3,3-dimethylpentane-1,5-diyl)bis(oxy)bis(2,1-phenylene))bis(1H-imidazole)], under 20 µM. Regarding `Oc1ccc(Cn2cncc2-c2ccccc2)cc1` [Compound 125, 4-((5-phenyl-1H-imidazol-1-yl)methyl)phenol], the half-maximal inhibitory concentration (IC50) fell in the range of 100 to 500 µM. Take `CC(=O)NCCC(C)(C)CCOc1ccccc1-c1c[nH]cn1` [Compound 53]: the half-inhibitory concentration (IC50) was under 20 µM. On to `CNC(=O)c1cccc(CCOc2ccccc2-c2c[nH]cn2)c1` [Compound 50, 3-(2-(2-(1H-imidazol-4-yl)phenoxy)ethyl)-N-methylbenzamide], for which the IC50 is under 20 µM. Next, `c1ccc(-c2c[nH]cn2)c(OCC2CCNCC2)c1` [Compound 157, 4-((2-(1H-imidazol-4-yl)phenoxy)methyl)piperidine]: 20 to 100 µM; `Fc1cc(F)cc(-c2c[nH]cn2)c1` [Compound 59, 4-(3,5-difluorophenyl)-1H-imidazole]: 20 to 100 µM. With `CC(C)(CCO)CCOc1ccccc1-c1c[nH]cn1` [Compound 167, 5-(2-(1H-imidazol-4-yl)phenoxy)-3,3-dimethylpentan-1-ol] the figure was 20 to 100 µM; with `c1ccc(Cc2nc[nH]c2-c2ccccc2)cc1` [Compound 123, 4-benzyl-5-phenyl-1H-imidazole], 100 to 500 µM.
